Data: US9365582B2, “Macrocyclic inhibitors of hepatitis C virus” (Janssen Sciences Ireland UC, priority 2006, dated 2016)

Key:
[1] = biological target: HCV NS3/4A protease (Hepatitis C virus genotype 1a (isolate H77) (HCV), UniProt P27958); experiment: Inhibition assay (enzymatic assay) of full-length NS3 protease with NS4A cofactor; format: biochemical; conditions: full-length NS3 1 nM, 25 μM NS4A cofactor, 0.5 μM depsipeptide substrate, 30° C., competitive inhibition model
Experimental: The aim of this in vitro assay was to measure the inhibition of HCV NS3/4A protease complexes by the compounds of the present invention.
Inhibitors were dissolved in DMSO, sonicated for 30 sec and vortexed. The solutions were stored at −20° C. between measurements.
The final concentration of DMSO in the assay sample was adjusted to 3.3%. […] A minimum of two replicates was performed for all measurements.

[2] = test system: HCV replicons (Huh-7 luc/neo cells, NS3-NS5B regions of HCV type 1b); experiment: Replicon assay (Huh-Luc cells, luciferase readout); format: cell-based; conditions: Hepatitis C virus, Huh-7, 72 h, read-out: EC50 (μM) Replicon assay
Excerpt: This model, while not a complete infection model for HCV, currently is widely accepted as an efficacious model of autonomous HCV RNA replication. […] It will be appreciated that it is important to distinguish between compounds that specifically interfere with HCV functions from those that exert cytotoxic or cytostatic effects in the HCV replicon model, and as a consequence cause a decrease in HCV RNA or linked reporter enzyme concentration. Assays are known in the field for the evaluation of cellular cytotoxicity based for example on the activity of mitochondrial enzymes using fluorogenic redox dyes such as resazurin. Furthermore, cellular counter screens exist for the evaluation of non-selective inhibition of linked reporter gene activity, such as firefly luciferase.
The compounds of formula (I) were examined for activity in the inhibition of HCV RNA replication in a cellular assay. […] In essence, the method was as follows.
The assay utilized the stably transfected cell line Huh-7 luc/neo (hereafter referred to as Huh-Luc). This cell line harbors an RNA encoding a bicistronic expression construct comprising the wild type NS3-NS5B regions of HCV type 1b translated from an internal ribosome entry site (IRES) from encephalomyocarditis virus (EMCV), preceded by a reporter portion (FfL-luciferase), and a selectable marker portion (neo^R, neomycine phosphotransferase). The construct is bordered by 5′ and 3′ NTRs (non-translated regions) from HCV type Ib. Continued culture of the replicon cells in the presence of G418 (neo^R) is dependent on the replication of the HCV RNA. The stably transfected replicon cells that express HCV RNA, which replicates autonomously and to high levels, encoding inter alia luciferase, were used for screening the antiviral compounds.
The replicon cells were plated in 384 well plates in the presence of the test and control compounds which were added in various concentrations. Following an incubation of three days, HCV replication was measured by assaying luciferase activity (using standard luciferase assay substrates and reagents and a Perkin Elmer ViewLux™ ultraHTS microplate imager). […] The inhibitory activity of the compound on luciferase activity was monitored on the Huh-Luc cells, enabling a dose-response curve for each test compound.

Sequence of HCV NS3/4A protease (P27958 1027-1657): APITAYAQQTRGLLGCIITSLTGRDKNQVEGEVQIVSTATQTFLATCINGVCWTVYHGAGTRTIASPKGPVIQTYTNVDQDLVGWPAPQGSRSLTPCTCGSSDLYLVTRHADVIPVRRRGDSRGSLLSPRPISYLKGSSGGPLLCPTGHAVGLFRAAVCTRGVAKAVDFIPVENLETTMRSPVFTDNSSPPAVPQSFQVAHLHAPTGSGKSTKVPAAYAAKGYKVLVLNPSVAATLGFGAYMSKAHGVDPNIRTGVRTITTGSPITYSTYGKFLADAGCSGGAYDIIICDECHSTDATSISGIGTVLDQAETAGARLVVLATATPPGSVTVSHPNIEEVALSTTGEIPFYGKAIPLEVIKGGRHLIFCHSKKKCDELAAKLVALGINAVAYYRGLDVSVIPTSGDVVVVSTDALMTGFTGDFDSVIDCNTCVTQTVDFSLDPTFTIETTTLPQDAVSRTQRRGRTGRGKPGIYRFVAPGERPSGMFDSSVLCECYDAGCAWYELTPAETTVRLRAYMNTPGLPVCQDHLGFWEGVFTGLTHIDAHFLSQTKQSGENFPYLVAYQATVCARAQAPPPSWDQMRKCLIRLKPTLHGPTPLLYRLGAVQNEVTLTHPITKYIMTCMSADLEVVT

Structure (SMILES) | Ki [1] [µM] | EC50 [2] [µM]
CCOc1cc(O[C@@H]2C[C@H]3C(=O)N[C@]4(C(=O)O)C[C@H]4/C=C\CCCCN(C)C(=O)[C@@H]3C2)c2ccc(OC)cc2n1 [Compound 4, 17-[2-ethoxy-7-methoxyquinolin-4-yloxy]-13-methyl-2,14-dioxo-3,13-diazatricyclo[13.3.0.0^4,6]octadec-7-ene-4-carboxylic acid] | 0.046 | 4.26
CCOc1cc(O[C@@H]2C[C@H]3C(=O)N[C@]4(C(=O)NS(=O)(=O)C5CC5)C[C@H]4/C=C\CCCCN(C)C(=O)[C@@H]3C2)c2ccc(OC)cc2n1 [Compound 5, N-[17-[2-ethoxy-7-methoxyquinolin-4-yloxy]-13-methyl-2,14-dioxo-3,13-diazatricyclo[13.3.0.0^4,6]octadec-7-ene-4-carbonyl](cyclopropyl)-sulfonamide] | 0.0001 | 0.014
CCOc1cc(O[C@@H]2C[C@H]3C(=O)N[C@]4(C(=O)NS(=O)(=O)C5CC5)C[C@H]4/C=C\CCCCN(C)C(=O)[C@@H]3C2)c2ccc(OC)c(Br)c2n1 [Compound 7, N-[17-[8-bromo-2-ethoxy-7-methoxyquinolin-4-yloxy]-13-methyl-2,14-dioxo-3,13-diazatricyclo[13.3.0.0^4,6]octadec-7-ene-4-carbonyl](cyclo-propyl)sulfonamide] | 0.0001 | 0.0035
CCOc1cc(O[C@@H]2C[C@H]3C(=O)N[C@]4(C(=O)NS(=O)(=O)C5CC5)C[C@H]4/C=C\CCCCN(C)C(=O)[C@@H]3C2)c2ccc3c(c2n1)CCO3 [Compound 9, N-[17-[2-ethoxy-8,9-dihydrofuro[2,3-h]quinolin-4-yloxy]-13-methyl-2,14-dioxo-3,13-diazatricyclo[13.3.0.0^4,6]octadec-7-ene-4-carbonyl](cyclo-propyl)sulfonamide] | 0.0008 | 0.029
CCOc1cc(O[C@@H]2C[C@H]3C(=O)N[C@]4(C(=O)O)C[C@H]4/C=C\CCCCN(C)C(=O)[C@@H]3C2)c2cccc(Cl)c2n1 [Compound 10, 17-[8-chloro-2-ethoxyquinolin-4-yloxy]-13-methyl-2,14-dioxo-3,13-diazatricyclo[13.3.0.0^4,6]octadec-7-ene-4-carboxylic acid] | 0.0077 | 3.81
CCOc1cc(O[C@@H]2C[C@H]3C(=O)N[C@]4(C(=O)NS(=O)(=O)C5CC5)C[C@H]4/C=C\CCCCN(C)C(=O)[C@@H]3C2)c2cccc(Cl)c2n1 [Compound 11, N-[17-[8-chloro-2-ethoxyquinolin-4-yloxy]-13-methyl-2,14-dioxo-3,13-diazatricyclo[13.3.0.0^4,6]octadec-7-ene-4-carbonyl](cyclopropyl)-sulfonamide] | 0.0005 | 0.0063
CCOc1cc(O[C@@H]2C[C@H]3C(=O)N[C@]4(C(=O)O)C[C@H]4/C=C\CCCCN(C)C(=O)[C@@H]3C2)c2cccc(C)c2n1 [Compound 12, 17-[2-ethoxy-8-methylquinolin-4-yloxy]-13-methyl-2,14-dioxo-3,13-diazatricyclo[13.3.0.0^4,6]octadec-7-ene-4-carboxylic acid] | 0.017 | 7.5
CCOc1cc(O[C@@H]2C[C@H]3C(=O)N[C@]4(C(=O)NS(=O)(=O)C5CC5)C[C@H]4/C=C\CCCCN(C)C(=O)[C@@H]3C2)c2cccc(C)c2n1 [Compound 13, N-[17-[2-ethoxy-8-methylquinolin-4-yloxy]-13-methyl-2,14-dioxo-3,13-diazatricyclo[13.3.0.0^4,6]octadec-7-ene-4-carbonyl](cyclopropyl)-sulfonamide] | 0.0001 | 0.014
CCOc1cc(O[C@@H]2C[C@H]3C(=O)N[C@]4(C(=O)O)C[C@H]4/C=C\CCCCN(C)C(=O)[C@@H]3C2)c2ccc3c(c2n1)OCO3 [Compound 14, 17-[8-ethoxy[1,3]dioxolo[4,5-h]quinolin-6-yloxy]-13-methyl-2,14-dioxo-3,13-diazatricyclo[13.3.0.0^4,6]octadec-7-ene-4-carboxylic acid] | 0.058 | 3.3
CCOc1cc(O[C@@H]2C[C@H]3C(=O)N[C@]4(C(=O)NS(=O)(=O)C5CC5)C[C@H]4/C=C\CCCCN(C)C(=O)[C@@H]3C2)c2ccc3c(c2n1)OCO3 [Compound 15, N-[17-[8-ethoxy[1,3]dioxolo[4,5-h]quinolin-6-yloxy]-13-methyl-2,14-dioxo-3,13-diazatricyclo[13.3.0.0^4,6]octadec-7-ene-4-carbonyl]-(cyclo-propyl)sulfonamide] | 0.0002 | 0.0035
